Like-named read-outs stand apart in the source and are kept apart here.
How the values were obtained:
HDAC1 = molecular target: T1, HDAC1 (Homo sapiens, UniProt Q13547); experiment: HDAC inhibitory activity, fluorescence-coupled acetylated peptide substrate assay (Lys-Ac-AMC); assay type: biochemical
T1 construct: purchased BPS Bioscience
Protocol: (§2) The HDAC inhibitory activity was determined by fluorescence-coupled acetylated peptide substrate assay (Lys-Ac-AMC). HDAC1 protein was purchased from BPS Bioscience, and the reaction buffer system was a modified tris(hydroxymethyl)aminomethane buffer (pH 7.0). The small molecule compounds of the present invention were prepared by being dissolved in 100% DMSO. HDAC was prepared in a buffer at a certain concentration as an enzyme solution; trypsin and fluorescent group 4-amino-7-coumarin coupled-acetylated peptide (Ac-peptide) substrate were prepared in a buffer at a certain concentration as a substrate solution. The compounds were added into the reaction wells in a 384-well plate at a designed concentration of 10 μM, 1 μM, 0.5 μM, 0.1 μM, 0.05 μM, 0.01 μM, 0.005 μM, 0.001 μM, and 0.00005 μM, respectively, and then 15 μl of the HDAC solution was added into the reaction wells (15 μl of blank buffer to the control well). […] The results were analyzed by GraphPad Prism software and IC50 values were calculated according to the formula: Y=Background Data+(Top Data−Background Data)/(1+10^((Log IC50−X) a curve slope)), where Y: the inhibition rate (%) and X: the concentration of the compound.

B-cell lymphoma Ramos = experiment: Cell proliferative activity (MTT / cck-8); assay type: cell-based; settings: Homo sapiens, read-out: Half-Inhibitory Concentration IC50 Ramos
How it was run: (§1)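 Logarithmic-phase tumor cells were plated at 2000-3000 cells/well in 96-well plates, adherent lines allowed to attach. Proliferation was read by MTT for solid-tumor lines and by CCK-8 for hematologic lines.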

[1] = system: Human cervical cancer cell Hela; experiment: Cell proliferative activity (MTT / cck-8); assay type: cell-based
How it was run: as §1

[2] = system: Human liver cancer cell HepG2; experiment: Cell proliferative activity (MTT / cck-8); assay type: cell-based
How it was run: as §1

[3] = system: Human lung cancer cell H460; experiment: Cell proliferative activity (MTT / cck-8); assay type: cell-based
How it was run: as §1

Human melanoma A375 = experiment: Cell proliferative activity (MTT / cck-8); assay type: cell-based; settings: A-375, incubated for 96 hours, read-out: Half-Inhibitory Concentration IC50 Human melanoma A375
How it was run: as §1

[4] = system: Human ovarian cancer cell SKOV-3; experiment: Cell proliferative activity (MTT / cck-8); assay type: cell-based
How it was run: as §1

Leukemia K562 = experiment: Cell proliferative activity (MTT / cck-8); assay type: cell-based; settings: Homo sapiens, read-out: Half-Inhibitory Concentration IC50 K562
How it was run: as §1

Leukemia MV4-11 = experiment: Cell proliferative activity (MTT / cck-8); assay type: cell-based; settings: Homo sapiens, read-out: Half-Inhibitory Concentration IC50 MV4-11
How it was run: as §1

[5] = system: Multiple myeloma RPMI8226; experiment: Cell proliferative activity (MTT / cck-8); assay type: cell-based; settings: Homo sapiens, RPMI-8226, read-out: Half-Inhibitory Concentration IC50 RPMI8226
How it was run: as §1

Multiple myeloma U266 = experiment: Cell proliferative activity (MTT / cck-8); assay type: cell-based; settings: Homo sapiens, U-266, read-out: Half-Inhibitory Concentration IC50 U266
How it was run: as §1

Ovarian cancer A2780s = experiment: Cell proliferative activity (MTT / cck-8); assay type: cell-based; settings: Homo sapiens, read-out: Half-Inhibitory Concentration IC50 A2780s
Breast cancer SKBR3 = experiment: Cell proliferative activity (MTT / cck-8); assay type: cell-based; settings: Homo sapiens, SK-BR-3, read-out: Half-Inhibitory Concentration IC50 SKBR3
Lung cancer A549 = experiment: Cell proliferative activity (MTT / cck-8); assay type: cell-based; settings: Homo sapiens, read-out: Half-Inhibitory Concentration IC50 A549
Colon cancer HCT116 = experiment: Cell proliferative activity (MTT / cck-8); assay type: cell-based; settings: Homo sapiens, HCT-116, read-out: Half-Inhibitory Concentration IC50 HCT116
Colon cancer HT29 = experiment: Cell proliferative activity (MTT / cck-8); assay type: cell-based; settings: Homo sapiens, HT-29, read-out: Half-Inhibitory Concentration IC50 HT29
HBL-1 cells = experiment: Therapeutic effect on the B-cell lymphoma HBL-1 subcutaneous tumor model; assay type: in vivo, NOD/SCID mice; settings: HBL-1 model, 9 times, vs solvent group
Ramos cells = experiment: Therapeutic effect on the B-cell lymphoma Ramos subcutaneous tumor model; assay type: in vivo, NOD/SCID mice; settings: 6 times; for tumor inhibitory rate: vs solvent group
HDAC2 = HDAC2 (Homo sapiens, UniProt Q92769); settings: read-out: IC50 HDAC2
Chain of HDAC2 (Q92769 whole entry): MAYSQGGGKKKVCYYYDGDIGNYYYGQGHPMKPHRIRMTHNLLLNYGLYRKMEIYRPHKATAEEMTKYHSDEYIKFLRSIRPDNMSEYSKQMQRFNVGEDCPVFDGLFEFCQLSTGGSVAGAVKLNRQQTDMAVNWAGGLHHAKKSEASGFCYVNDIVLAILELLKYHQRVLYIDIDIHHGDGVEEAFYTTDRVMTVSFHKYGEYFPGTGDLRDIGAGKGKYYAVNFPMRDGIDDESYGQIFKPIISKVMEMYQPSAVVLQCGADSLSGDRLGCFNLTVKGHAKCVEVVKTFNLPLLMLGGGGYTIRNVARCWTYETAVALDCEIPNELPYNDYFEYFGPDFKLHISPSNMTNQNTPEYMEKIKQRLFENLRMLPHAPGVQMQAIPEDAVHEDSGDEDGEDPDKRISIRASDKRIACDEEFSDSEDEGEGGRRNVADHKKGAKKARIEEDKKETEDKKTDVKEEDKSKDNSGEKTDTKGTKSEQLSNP
Protocol: as §2

HDAC3 = HDAC3 (Homo sapiens, UniProt O15379); settings: read-out: IC50 HDAC3; Table 4, Class I
Chain of HDAC3 (O15379 whole entry): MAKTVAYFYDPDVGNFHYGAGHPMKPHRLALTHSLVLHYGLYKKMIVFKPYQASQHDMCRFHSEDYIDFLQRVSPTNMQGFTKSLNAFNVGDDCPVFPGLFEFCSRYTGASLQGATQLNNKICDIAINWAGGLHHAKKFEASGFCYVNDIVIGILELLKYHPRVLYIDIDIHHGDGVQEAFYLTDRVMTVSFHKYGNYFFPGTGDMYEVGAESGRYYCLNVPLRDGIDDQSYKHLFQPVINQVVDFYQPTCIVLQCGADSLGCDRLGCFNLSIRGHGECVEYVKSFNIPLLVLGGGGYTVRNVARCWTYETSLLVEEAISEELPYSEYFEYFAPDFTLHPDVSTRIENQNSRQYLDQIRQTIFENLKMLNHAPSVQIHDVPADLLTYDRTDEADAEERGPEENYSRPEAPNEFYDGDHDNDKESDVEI
Chain of HDAC3 (Q9Y618 395-489 partner limits assumed): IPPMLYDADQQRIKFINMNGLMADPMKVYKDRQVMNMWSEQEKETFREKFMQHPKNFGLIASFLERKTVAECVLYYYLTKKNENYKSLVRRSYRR
Protocol: The HDAC inhibitory activity was determined by fluorescence-coupled acetylated peptide substrate assay (Lys-Ac-AMC). […] The small molecule compounds of the present invention were prepared by being dissolved in 100% DMSO. HDAC was prepared in a buffer at a certain concentration as an enzyme solution; trypsin and fluorescent group 4-amino-7-coumarin coupled-acetylated peptide (Ac-peptide) substrate were prepared in a buffer at a certain concentration as a substrate solution. The compounds were added into the reaction wells in a 384-well plate at a designed concentration of 10 μM, 1 μM, 0.5 μM, 0.1 μM, 0.05 μM, 0.01 μM, 0.005 μM, 0.001 μM, and 0.00005 μM, respectively, and then 15 μl of the HDAC solution was added into the reaction wells (15 μl of blank buffer to the control well). […] The results were analyzed by GraphPad Prism software and IC50 values were calculated according to the formula: Y=Background Data+(Top Data−Background Data)/(1+10^((Log IC50−X) a curve slope)), where Y: the inhibition rate (%) and X: the concentration of the compound.

HDAC10 = HDAC10 (Homo sapiens, UniProt Q969S8); settings: read-out: IC50 HDAC10; Table 4, Class IIb
Chain of HDAC10 (Q969S8 whole entry): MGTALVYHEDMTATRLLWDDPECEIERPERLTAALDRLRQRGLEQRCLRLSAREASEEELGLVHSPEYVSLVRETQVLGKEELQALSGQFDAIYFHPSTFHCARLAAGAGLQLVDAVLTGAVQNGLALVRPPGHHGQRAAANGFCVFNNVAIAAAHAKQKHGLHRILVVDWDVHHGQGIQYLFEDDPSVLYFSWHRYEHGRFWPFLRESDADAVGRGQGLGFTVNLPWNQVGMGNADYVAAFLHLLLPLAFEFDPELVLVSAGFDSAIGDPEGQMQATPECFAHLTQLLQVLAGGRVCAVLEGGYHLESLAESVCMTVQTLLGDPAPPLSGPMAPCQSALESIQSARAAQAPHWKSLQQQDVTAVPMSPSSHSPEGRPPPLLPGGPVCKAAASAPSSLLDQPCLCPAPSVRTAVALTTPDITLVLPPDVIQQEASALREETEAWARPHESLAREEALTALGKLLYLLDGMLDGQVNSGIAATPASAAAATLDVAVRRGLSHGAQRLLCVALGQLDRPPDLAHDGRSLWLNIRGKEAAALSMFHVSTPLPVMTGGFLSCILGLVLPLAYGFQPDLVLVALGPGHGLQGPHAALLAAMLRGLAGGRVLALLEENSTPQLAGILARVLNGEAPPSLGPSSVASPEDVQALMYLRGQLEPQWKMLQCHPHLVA
Protocol: as §2

A2780s cells = settings: A2780s model, 16 times; for tumor inhibitory rate: vs solvent group
HCT116 cells = experiment: Therapeutic effect on the colon cancer HCT116 model (intravenous)
HDAC8 = molecular target: T2, HDAC8 (Homo sapiens, UniProt Q9BY41); experiment: HDAC inhibitory activity, fluorescence-coupled acetylated peptide substrate assay
T2 sequence (Q9BY41 1-377): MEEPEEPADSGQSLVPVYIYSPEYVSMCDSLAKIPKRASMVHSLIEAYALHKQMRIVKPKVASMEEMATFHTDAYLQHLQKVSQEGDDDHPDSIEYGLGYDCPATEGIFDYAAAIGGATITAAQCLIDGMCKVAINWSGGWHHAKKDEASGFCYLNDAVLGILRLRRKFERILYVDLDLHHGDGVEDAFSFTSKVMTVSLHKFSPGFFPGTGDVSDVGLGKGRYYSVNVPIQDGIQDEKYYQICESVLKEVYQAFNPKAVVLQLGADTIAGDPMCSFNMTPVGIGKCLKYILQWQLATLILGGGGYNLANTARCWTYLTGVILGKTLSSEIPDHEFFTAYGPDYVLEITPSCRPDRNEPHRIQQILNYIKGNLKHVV
Protocol: as §2

[6] = 10 mg/kg intragastrically once every other day
[7] = 20 mg/kg intragastrically once every other day
[8] = 40 mg/kg intragastrically once every other day
[9] = 80 mg/kg intragastrically once every other day
[10] = 50 mg/kg intragastrically once every other day

T1 sequence (Q13547 whole entry): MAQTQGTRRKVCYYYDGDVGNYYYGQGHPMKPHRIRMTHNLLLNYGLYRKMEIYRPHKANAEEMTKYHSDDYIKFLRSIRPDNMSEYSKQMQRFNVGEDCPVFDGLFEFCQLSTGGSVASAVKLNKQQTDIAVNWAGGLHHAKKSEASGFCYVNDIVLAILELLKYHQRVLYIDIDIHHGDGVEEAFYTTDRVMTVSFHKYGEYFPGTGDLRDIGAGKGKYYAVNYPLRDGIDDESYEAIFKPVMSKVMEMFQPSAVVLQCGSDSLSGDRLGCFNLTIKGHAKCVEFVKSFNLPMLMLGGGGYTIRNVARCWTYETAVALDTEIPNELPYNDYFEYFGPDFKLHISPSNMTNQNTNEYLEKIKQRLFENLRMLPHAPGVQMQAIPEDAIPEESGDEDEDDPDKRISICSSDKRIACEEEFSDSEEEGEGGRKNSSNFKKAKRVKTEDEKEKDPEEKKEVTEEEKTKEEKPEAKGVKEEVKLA

## COc1ccc(N(C)c2nc(C)nc3ccccc23)cc1OCCCC(=O)NO [III-2, N-hydroxy-4-(2-methoxy-5-(methyl(2-methyl-4-quinazolinyl)amino)phenoxy) butanamide]
HDAC1; Table 2
  IC50: 0.1 to 1 µM
HDAC1; Table 4, Class I
  IC50: 0.422 ± 0.001 µM
B-cell lymphoma Ramos
  IC50: 0.071 ± 0.031 µM
[1]; Cervical cancer, Table 5, read-out: Half-Inhibitory Concentration IC50 Hela
  IC50: 0.049 ± 0.02 µM
[1]; incubated for 96 hours, read-out: Half-Inhibitory Concentration IC50 Human cervical cancer cell Hela
  IC50: 0.01 to 0.1 µM
[2]; Liver cancer, Table 5, read-out: Half-Inhibitory Concentration IC50 HepG2
  IC50: 0.041 ± 0.001 µM
[2]; incubated for 96 hours, read-out: Half-Inhibitory Concentration IC50 Human liver cancer cell HepG2
  IC50: 0.01 to 0.1 µM
[3]; NCI-H460, Lung cancer, Table 5, read-out: Half-Inhibitory Concentration IC50 H460
  IC50: 0.055 ± 0.013 µM
[3]; NCI-H460, incubated for 96 hours, read-out: Half-Inhibitory Concentration IC50 Human lung cancer cell H460
  IC50: 0.01 to 0.1 µM
Human melanoma A375
  IC50: 0.01 to 0.1 µM
[4]; SK-OV-3, Ovarian cancer, Table 5, read-out: Half-Inhibitory Concentration IC50 SKOV-3
  IC50: 0.05 ± 0.008 µM
[4]; SK-OV-3, incubated for 96 hours, read-out: Half-Inhibitory Concentration IC50 Human ovarian cancer cell SKOV-3
  IC50: 0.01 to 0.1 µM
Leukemia K562
  IC50: 0.063 ± 0.018 µM
Leukemia MV4-11
  IC50: 0.06 ± 0.032 µM
[5]
  IC50: 0.015 ± 0.004 µM
Multiple myeloma U266
  IC50: 0.014 ± 0.006 µM
Ovarian cancer A2780s
  IC50: 0.046 ± 0.011 µM
Breast cancer SKBR3
  IC50: 0.022 ± 0.008 µM
Lung cancer A549
  IC50: 0.104 ± 0.029 µM
Colon cancer HCT116
  IC50: 0.035 ± 0.021 µM
Colon cancer HT29
  IC50: 0.072 ± 0.037 µM
HBL-1 cells; [6]
  tumor inhibitory rate: 31.70%
HBL-1 cells; [7]
  tumor inhibitory rate: 25.23%
HBL-1 cells; [8]
  tumor inhibitory rate: 58.22%
HBL-1 cells; [9]
  tumor inhibitory rate: 56.88%
Ramos cells; [6]
  tumor inhibitory rate: no effects on inhibiting tumor growth
Ramos cells; [7]
  tumor inhibitory rate: no effects on inhibiting tumor growth
Ramos cells; [8]
  tumor inhibitory rate: 22.54%
Ramos cells; 80 mg/kg intragastrically once every other day, a mouse died
  toxicity (death of mice during the experiment): may exhibit toxicity to a few individuals
Ramos cells; [9]
  tumor inhibitory rate: 58.79%
HDAC2
  IC50: 0.386 ± 0.007 µM
HDAC3
  IC50: 0.439 ± 0.009 µM
HDAC10
  IC50: 1.18 ± 0.168 µM
A2780s cells; 12.5 mg/kg intragastrically once every other day
  tumor inhibitory rate: 78.49%
A2780s cells; 25 mg/kg intragastrically once every other day
  tumor inhibitory rate: 82.02%
A2780s cells; [10]
  death of mice during the experiment: one mouse died
  tumor inhibitory rate: 81.70%
HCT116 cells; 50 mg/kg intravenously once every other day, 9 times, vs blank control, P<0.01
  survival time of mice: significantly prolonged the survival time of mice
HCT116 cells; 50 mg/kg intravenously, SAHA 50 mg/kg intraperitoneally
  effect prolonging the survival time compared with positive control group: superior to that of the positive control group
HDAC8; IC50 HDAC8, Table 2
  IC50: > 1 µM
HDAC8; read-out: IC50 HDAC8, Table 4, Class I
  IC50: 3.4 ± 0.487 µM
